# Laboratory results reported in ChEMBL document CHEMBL3352598, “Synthesis, pharmacological evaluation and molecular modeling studies of triazole containing dopamine D3 receptor ligands” (Bioorg Med Chem Lett, 2015).
# Assays:
# [1] = target: D(3) dopamine receptor (Homo sapiens, UniProt P35462); assay: biochemical; type: cell-based, HEK293
# [2] = target: D(2) dopamine receptor (Homo sapiens, UniProt P14416); assay: biochemical; type: cell-based, HEK293
# [3] = organism: Homo sapiens; assay: Selectivity index, ratio of Ki for D4 receptor to Ki for human D3 receptor
# [4] = target: T1, 5-hydroxytryptamine receptor 1A (Homo sapiens, UniProt P08908); assay: Displacement of [3H]8-OH-DPAT from human 5HT1A receptor after 60 mins by filtration binding assay
# T1 sequence (P08908 whole entry): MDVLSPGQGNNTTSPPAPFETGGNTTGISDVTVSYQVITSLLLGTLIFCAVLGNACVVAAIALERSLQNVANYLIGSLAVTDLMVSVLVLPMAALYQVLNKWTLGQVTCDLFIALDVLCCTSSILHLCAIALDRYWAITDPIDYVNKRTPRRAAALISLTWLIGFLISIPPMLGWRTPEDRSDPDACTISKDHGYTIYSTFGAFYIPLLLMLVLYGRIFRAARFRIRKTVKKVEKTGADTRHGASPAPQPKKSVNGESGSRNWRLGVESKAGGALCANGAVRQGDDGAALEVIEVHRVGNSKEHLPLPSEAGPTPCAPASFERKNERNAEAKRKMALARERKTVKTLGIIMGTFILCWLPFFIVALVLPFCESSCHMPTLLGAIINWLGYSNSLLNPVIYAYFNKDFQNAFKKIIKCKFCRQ
# [5] = target: T2, D(4) dopamine receptor (Homo sapiens, UniProt P21917); assay: Displacement of [125I]-IABN from human D4 receptor expressed in HEK293 cell membranes after 60 mins by filtration binding assay
# T2 sequence (P21917 whole entry): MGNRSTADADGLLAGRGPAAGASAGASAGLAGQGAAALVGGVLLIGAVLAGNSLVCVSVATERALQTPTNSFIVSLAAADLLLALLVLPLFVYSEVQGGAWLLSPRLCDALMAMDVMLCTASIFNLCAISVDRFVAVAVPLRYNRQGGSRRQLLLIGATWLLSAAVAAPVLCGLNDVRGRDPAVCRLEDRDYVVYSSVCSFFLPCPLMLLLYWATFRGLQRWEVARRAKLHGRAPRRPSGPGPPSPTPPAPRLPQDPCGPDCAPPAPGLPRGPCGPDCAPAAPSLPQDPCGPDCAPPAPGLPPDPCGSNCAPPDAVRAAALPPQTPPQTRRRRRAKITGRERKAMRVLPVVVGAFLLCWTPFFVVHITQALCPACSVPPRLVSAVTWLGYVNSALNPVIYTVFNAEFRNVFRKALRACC
# D(3) dopamine receptor, sequence (P35462 whole entry): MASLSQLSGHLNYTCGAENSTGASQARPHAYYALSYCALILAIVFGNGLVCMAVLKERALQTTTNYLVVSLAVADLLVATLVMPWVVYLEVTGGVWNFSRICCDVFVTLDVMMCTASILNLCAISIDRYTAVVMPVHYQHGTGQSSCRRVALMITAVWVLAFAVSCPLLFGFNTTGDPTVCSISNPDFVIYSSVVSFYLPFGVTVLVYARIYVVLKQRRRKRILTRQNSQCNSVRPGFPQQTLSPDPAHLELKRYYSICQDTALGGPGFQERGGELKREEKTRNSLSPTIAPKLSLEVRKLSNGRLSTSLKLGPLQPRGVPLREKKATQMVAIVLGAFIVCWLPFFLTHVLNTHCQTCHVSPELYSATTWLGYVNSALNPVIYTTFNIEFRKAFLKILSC
# D(2) dopamine receptor, sequence (P14416 whole entry): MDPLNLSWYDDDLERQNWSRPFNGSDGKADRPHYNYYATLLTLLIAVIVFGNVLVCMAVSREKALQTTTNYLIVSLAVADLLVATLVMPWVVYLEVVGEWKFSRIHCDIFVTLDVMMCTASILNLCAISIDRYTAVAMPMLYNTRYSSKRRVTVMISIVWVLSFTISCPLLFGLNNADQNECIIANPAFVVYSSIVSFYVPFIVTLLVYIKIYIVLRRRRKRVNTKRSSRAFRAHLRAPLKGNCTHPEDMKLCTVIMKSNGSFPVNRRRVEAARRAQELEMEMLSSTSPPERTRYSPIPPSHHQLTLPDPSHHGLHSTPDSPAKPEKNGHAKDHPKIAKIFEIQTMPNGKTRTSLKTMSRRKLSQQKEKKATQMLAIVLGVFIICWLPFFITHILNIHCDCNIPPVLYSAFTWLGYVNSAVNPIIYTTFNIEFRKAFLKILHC
SMILES,Ki [1],Ki [2],Ratio Ki [3],Ki [4],Ki [5]
COc1ccccc1N1CCN(CCCCc2cn(-c3ccc(N(C)C)cc3)nn2)CC1,13.9 nM,171 nM,55,9.4 nM,758 nM
COc1ccccc1N1CCN(CCCCCc2cn(-c3ccccc3OC)nn2)CC1,21.1 nM,62.7 nM,–,–,–
COc1ccccc1N1CCN(CCCc2cn(-c3ccccc3)nn2)CC1,22.2 nM,64 nM,–,–,–
COc1ccccc1N1CCN(CCCc2cn(-c3ccc(N(C)C)cc3)nn2)CC1,29.6 nM,162 nM,–,–,–
COc1ccccc1N1CCN(CCCCc2cn(-c3ccccc3OC)nn2)CC1,25.4 nM,139 nM,–,–,–
COc1ccccc1N1CCN(CCCc2cn(-c3ccc(SC)cc3)nn2)CC1,9.6 nM,44.1 nM,–,–,–
COc1ccccc1N1CCN(CCCCNC(=O)c2ccc(N(C)C)cc2)CC1,–,–,1120,7.5 nM,–
COc1ccccc1N1CCN(CCCc2cn(-c3ccc(F)cc3)nn2)CC1,26.5 nM,73.5 nM,–,–,–
COc1ccccc1N1CCN(CCCCc2cn(-c3ccc(-c4ccsc4)cc3)nn2)CC1,8.2 nM,94.3 nM,48,1.3 nM,395 nM
COc1ccccc1N1CCN(CCCc2cn(-c3ccc(-c4ccsc4)cc3)nn2)CC1,8.9 nM,158 nM,10,7.4 nM,90 nM
COc1ccccc1N1CCN(CCCc2cn(-c3ccccc3OC)nn2)CC1,93.1 nM,272 nM,–,–,–
COc1ccccc1N1CCN(CCCc2cn(-c3cccc4cnccc34)nn2)CC1,36.3 nM,79.3 nM,–,–,–

# Other lines, results leading:
Ki [1],Ki [2],Ratio Ki [3],Ki [4],Ki [5],SMILES
3.1 nM,19.4 nM,–,–,–,COc1ccccc1N1CCN(CCCCCc2cn(-c3ccccc3)nn2)CC1
2.9 nM,9.4 nM,–,–,–,COc1ccccc1N1CCN(CCCCc2cn(-c3ccccc3O)nn2)CC1
2.3 nM,26.6 nM,99,3.9 nM,227 nM,COc1ccccc1N1CCN(CCCCCc2cn(-c3ccc(SC)cc3)nn2)CC1
6.3 nM,109 nM,26,153 nM,163 nM,COc1ccccc1N1CCN(CCCCCc2cn(-c3ccc(-c4ccsc4)cc3)nn2)CC1
4.7 nM,30.9 nM,–,–,–,COc1ccccc1N1CCN(CCCCc2cn(-c3ccccc3)nn2)CC1
3.2 nM,23.7 nM,–,–,–,COc1ccccc1N1CCN(CCCCCc2cn(-c3ccc(F)cc3)nn2)CC1
6.7 nM,62.6 nM,–,–,–,COc1ccccc1N1CCN(CCCCCc2cn(-c3ccc(N(C)C)cc3)nn2)CC1
3.7 nM,42.3 nM,237,6 nM,875 nM,COc1ccccc1N1CCN(CCCCc2cn(-c3cccc4cnccc34)nn2)CC1
2.1 nM,37.7 nM,95,5.3 nM,200 nM,COc1ccccc1N1CCN(CCCCc2cn(-c3ccc(SC)cc3)nn2)CC1
6.5 nM,46.7 nM,–,–,–,COc1ccccc1N1CCN(CCCCc2cn(-c3ccc(F)cc3)nn2)CC1
1.8 nM,17.7 nM,103,5.8 nM,186 nM,COc1ccccc1N1CCN(CCCCCc2cn(-c3cccc4cnccc34)nn2)CC1
6.8 nM,12.8 nM,–,–,–,COc1ccccc1N1CCN(CCCc2cn(-c3ccccc3O)nn2)CC1
